A value given as a limit tells only on which side of the number the result lay.

The first assay has as its system HCT116 cells. The assay can be described thus: In vitro cytotoxicity measured by the cell colony formation assay. Particulars: HCT116 cells, 72 h incubation with drug, colonies counted after 7 days; ID50 = drug concentration producing 50% inhibition of colony formation; read-out: IN VITRO ID 50 (nm) HCT116. The format is cell-based. Summed up: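 Colony-forming survival was scored 7 days after a 72 h, 37 °C compound exposure followed by washout into fresh medium.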
Regarding `COC(=O)O[C@H]1C[C@H]2OC[C@@]2(OC(C)=O)C2[C@H](OC(=O)c3ccccc3)[C@]3(O)C[C@H](OC(=O)[C@H](O)[C@@H](NC(=O)c4cccs4)c4cccs4)C(C)=C([C@@H](O)C(=O)[C@@]21C)C3(C)C` (some centres unmarked) [Compound 4424], the IC50 is < 1 nM.
The same measure, in the same setting: with `CCOC(=O)O[C@H]1C(=O)[C@@]2(C)C([C@H](OC(=O)c3ccccc3)[C@]3(O)C[C@H](OC(=O)[C@H](O)[C@@H](NC(=O)OC(C)(C)C)C(C)C)C(C)=C1C3(C)C)[C@]1(OC(C)=O)CO[C@@H]1C[C@@H]2O` (some centres unmarked) [Compound 1767] the figure was < 10 nM; with `CCOC(=O)N[C@@H](c1ccco1)[C@@H](O)C(=O)O[C@H]1C[C@@]2(O)[C@@H](OC(=O)c3ccccc3)C3[C@](C)(C(=O)[C@H](OC(=O)OCC)C(=C1C)C2(C)C)[C@@H](O)C[C@H]1OC[C@@]31OC(C)=O` (some centres unmarked) [Compound 4020], < 1 nM.
As for `C/C=C/C(=O)N[C@@H](c1cccs1)[C@@H](O)C(=O)O[C@H]1C[C@@]2(O)[C@@H](OC(=O)c3ccccc3)C3[C@](C)(C(=O)[C@H](O)C(=C1C)C2(C)C)[C@@H](OC(=O)OCC)C[C@H]1OC[C@@]31OC(C)=O` (some centres unmarked) [Compound 4855], the IC50 was < 1 nM.
Take `CCOC(=O)O[C@H]1C(=O)[C@@]2(C)C([C@H](OC(=O)c3ccccc3)[C@]3(O)C[C@H](OC(=O)[C@H](O)[C@@H](NC(=O)c4ccncc4)c4cccs4)C(C)=C1C3(C)C)[C@]1(OC(C)=O)CO[C@@H]1C[C@@H]2O` (some centres unmarked) [Compound 3393]: the IC50 was > 50 nM.

Staying with this assay, now noted: HCT116 colony formation; 72 h drug incubation, colonies counted after 7 days; Example 5, C-7 ester/C-10 hydroxy taxanes; read-out: IN VITRO ID 50 (nm) HCT116.
Take `CCC(=O)O[C@H]1C[C@H]2OC[C@@]2(OC(C)=O)C2[C@H](OC(=O)c3ccccc3)[C@]3(O)C[C@H](OC(=O)[C@H](O)[C@@H](NC(=O)OCC(C)C)c4cccs4)C(C)=C([C@@H](O)C(=O)[C@@]21C)C3(C)C` (some centres unmarked) [Compound 3232]: the IC50 is < 1 nM.
Regarding `C/C=C/C(=O)N[C@@H](c1ccco1)[C@@H](O)C(=O)O[C@H]1C[C@@]2(O)[C@@H](OC(=O)c3ccccc3)C3[C@](C)(C(=O)[C@H](O)C(=C1C)C2(C)C)[C@@H](OC(=O)CCC)C[C@H]1OC[C@@]31OC(C)=O` (some centres unmarked) [Compound 4737], the IC50 was < 1 nM.
Turning to `CCCC(=O)O[C@H]1C[C@H]2OC[C@@]2(OC(C)=O)C2[C@H](OC(=O)c3ccccc3)[C@]3(O)C[C@H](OC(=O)[C@H](O)[C@@H](NC(=O)c4ccco4)c4cccs4)C(C)=C([C@@H](O)C(=O)[C@@]21C)C3(C)C` (some centres unmarked) [Compound 4219], the IC50 is 29 nM.
In the case of `CC(=O)O[C@@]12CO[C@@H]1C[C@H](OC(=O)C(C)C)[C@@]1(C)C(=O)[C@H](O)C3=C(C)[C@@H](OC(=O)[C@H](O)[C@@H](NC(=O)OC=C(C)C)c4ccco4)C[C@@](O)([C@@H](OC(=O)c4ccccc4)C12)C3(C)C` (some centres unmarked) [Compound 5989], the IC50 was < 10 nM.
With `CCOC(=O)N[C@@H](c1ccco1)[C@@H](O)C(=O)O[C@H]1C[C@@]2(O)[C@@H](OC(=O)c3ccccc3)C3[C@](C)(C(=O)[C@H](O)C(=C1C)C2(C)C)[C@@H](OC(=O)CC)C[C@H]1OC[C@@]31OC(C)=O` (some centres unmarked) [Compound 3611], the IC50 was < 1 nM.
On to `CCC(=O)O[C@H]1C[C@H]2OC[C@@]2(OC(C)=O)C2[C@H](OC(=O)c3ccccc3)[C@]3(O)C[C@H](OC(=O)[C@H](O)[C@@H](NC(=O)OCC(C)C)C4CC4)C(C)=C([C@@H](O)C(=O)[C@@]21C)C3(C)C` (some centres unmarked) [Compound 5191], for which the IC50 is < 10 nM.
In the case of `CCCC(=O)O[C@H]1C[C@H]2OC[C@@]2(OC(C)=O)C2[C@H](OC(=O)c3ccccc3)[C@]3(O)C[C@H](OC(=O)[C@H](O)[C@@H](NC(=O)OC(C)(C)C)c4ccsc4)C(C)=C([C@@H](O)C(=O)[C@@]21C)C3(C)C` (some centres unmarked) [Compound 4446], the IC50 is < 1 nM.
Consider `C/C=C/C(=O)N[C@@H](c1ccsc1)[C@@H](O)C(=O)O[C@H]1C[C@@]2(O)[C@@H](OC(=O)c3ccccc3)C3[C@](C)(C(=O)[C@H](O)C(=C1C)C2(C)C)[C@@H](OC(=O)CCC)C[C@H]1OC[C@@]31OC(C)=O` (some centres unmarked) [Compound 5030], for which the IC50 is < 1 nM.

The assay is the same for the next values; noted with them: HCT116 colony formation; 72 h drug incubation, colonies counted after 7 days; Example 10, C-10 ester/C-7 hydroxy taxanes; read-out: IN VITRO ID 50 (nm) HCT116.
As to `CCCC(=O)O[C@H]1C(=O)[C@@]2(C)C([C@H](OC(=O)c3ccccc3)[C@]3(O)C[C@H](OC(=O)[C@H](O)[C@@H](NC(=O)c4cccs4)c4ccco4)C(C)=C1C3(C)C)[C@]1(OC(C)=O)CO[C@@H]1C[C@@H]2O` (some centres unmarked) [Compound 3656], the IC50 is < 1 nM.
Turning to `CC(=O)O[C@@]12CO[C@@H]1C[C@H](O)[C@@]1(C)C(=O)[C@H](OC(=O)C(C)C)C3=C(C)[C@@H](OC(=O)[C@H](O)[C@@H](NC(=O)OC(C)(C)C)c4ccco4)C[C@@](O)([C@@H](OC(=O)c4ccccc4)C12)C3(C)C` (some centres unmarked) [Compound 2269], the IC50 is < 1 nM.
In the case of `CCCC(=O)O[C@H]1C(=O)[C@@]2(C)C([C@H](OC(=O)c3ccccc3)[C@]3(O)C[C@H](OC(=O)[C@H](O)[C@@H](NC(=O)OCC(C)C)c4ccsc4)C(C)=C1C3(C)C)[C@]1(OC(C)=O)CO[C@@H]1C[C@@H]2O` (some centres unmarked) [Compound 4834], the IC50 was < 10 nM.
Consider `CCC(=O)O[C@H]1C(=O)[C@@]2(C)C([C@H](OC(=O)c3ccccc3)[C@]3(O)C[C@H](OC(=O)[C@H](O)[C@@H](NC(=O)OC(C)(C)C)c4ccncc4)C(C)=C1C3(C)C)[C@]1(OC(C)=O)CO[C@@H]1C[C@@H]2O` (some centres unmarked) [Compound 0521], for which the IC50 is < 1 nM.
With `CC(=O)O[C@@]12CO[C@@H]1C[C@H](O)[C@@]1(C)C(=O)[C@H](OC(=O)C3CC3)C3=C(C)[C@@H](OC(=O)[C@H](O)[C@@H](NC(=O)c4cccnc4)c4cccs4)C[C@@](O)([C@@H](OC(=O)c4ccccc4)C12)C3(C)C` (some centres unmarked) [Compound 4112], the IC50 is < 10 nM.
As for `CCC(=O)O[C@H]1C(=O)[C@@]2(C)C([C@H](OC(=O)c3ccccc3)[C@]3(O)C[C@H](OC(=O)[C@H](O)[C@@H](NC(=O)OCC(C)C)C4CC4)C(C)=C1C3(C)C)[C@]1(OC(C)=O)CO[C@@H]1C[C@@H]2O` (some centres unmarked) [Compound 4799], the IC50 was < 1 nM.
Turning to `CCCC(=O)O[C@H]1C(=O)[C@@]2(C)C([C@H](OC(=O)c3ccccc3)[C@]3(O)C[C@H](OC(=O)[C@H](O)[C@@H](NC(=O)OCC(C)C)c4cccs4)C(C)=C1C3(C)C)[C@]1(OC(C)=O)CO[C@@H]1C[C@@H]2O` (some centres unmarked) [Compound 3265], the IC50 is < 10 nM.
In the case of `CCC(=O)O[C@H]1C(=O)[C@@]2(C)C([C@H](OC(=O)c3ccccc3)[C@]3(O)C[C@H](OC(=O)[C@H](O)[C@@H](NC(=O)c4ccccc4)c4ccccn4)C(C)=C1C3(C)C)[C@]1(OC(C)=O)CO[C@@H]1C[C@@H]2O` (some centres unmarked) [Compound 0634], the IC50 was < 10 nM.
Take `C/C=C/C(=O)N[C@@H](c1ccco1)[C@@H](O)C(=O)O[C@H]1C[C@@]2(O)[C@@H](OC(=O)c3ccccc3)C3[C@](C)(C(=O)[C@H](OC(=O)CC)C(=C1C)C2(C)C)[C@@H](O)C[C@H]1OC[C@@]31OC(C)=O` (some centres unmarked) [Compound 3982]: the IC50 is < 1 nM.
On to `CC(=O)O[C@@]12CO[C@@H]1C[C@H](O)[C@@]1(C)C(=O)[C@H](OC(=O)C3CC3)C3=C(C)[C@@H](OC(=O)[C@H](O)[C@@H](NC(=O)OC(C)C)c4cccs4)C[C@@](O)([C@@H](OC(=O)c4ccccc4)C12)C3(C)C` (some centres unmarked) [Compound 3071], for which the IC50 was < 1 nM.
Still for that read-out and setting: with `CCC(=O)O[C@H]1C(=O)[C@@]2(C)C([C@H](OC(=O)c3ccccc3)[C@]3(O)C[C@H](OC(=O)[C@H](O)[C@@H](NC(=O)c4ccco4)c4cccs4)C(C)=C1C3(C)C)[C@]1(OC(C)=O)CO[C@@H]1C[C@@H]2O` (some centres unmarked) [Compound 3053] the figure was < 1 nM; with `CC(=O)O[C@@]12CO[C@@H]1C[C@H](O)[C@@]1(C)C(=O)[C@H](OC(=O)C3CC3)C3=C(C)[C@@H](OC(=O)[C@H](O)[C@@H](NC(=O)c4ccccc4)c4cccs4)C[C@@](O)([C@@H](OC(=O)c4ccccc4)C12)C3(C)C` (some centres unmarked) [Compound 0919], < 1 nM.
Regarding `CCCC(=O)O[C@H]1C(=O)[C@@]2(C)C([C@H](OC(=O)c3ccccc3)[C@]3(O)C[C@H](OC(=O)[C@H](O)[C@@H](NC(=O)OC(C)(C)C)c4ccncc4)C(C)=C1C3(C)C)[C@]1(OC(C)=O)CO[C@@H]1C[C@@H]2O` (some centres unmarked) [Compound 0978], the IC50 is < 1 nM.
On to `CC(=O)O[C@@]12CO[C@@H]1C[C@H](O)[C@@]1(C)C(=O)[C@H](OC(=O)C=C(C)C)C3=C(C)[C@@H](OC(=O)[C@H](O)[C@@H](NC(=O)OC(C)(C)C)c4ccoc4)C[C@@](O)([C@@H](OC(=O)c4ccccc4)C12)C3(C)C` (some centres unmarked) [Compound 2499], for which the IC50 is < 1 nM.
Still for that read-out and setting: with `CC(=O)OC12COC1CC(O)C1(C)C(=O)C(OC(=O)c3ccco3)C3=C(C)C(OC(=O)C(O)C(C=C(C)C)NC(=O)OC(C)(C)C)CC(O)(C(OC(=O)c4ccccc4)C21)C3(C)C` (centres unmarked) [Compound 2101] the figure was < 1 nM; with `CC(=O)O[C@@]12CO[C@@H]1C[C@H](O)[C@@]1(C)C(=O)[C@H](OC(=O)C3CC3)C3=C(C)[C@@H](OC(=O)[C@H](O)[C@@H](NC(=O)OC(C)(C)C)c4ccsc4)C[C@@](O)([C@@H](OC(=O)c4ccccc4)C12)C3(C)C` (some centres unmarked) [Compound 2794], < 1 nM; with `CCCC(=O)O[C@H]1C(=O)[C@@]2(C)C([C@H](OC(=O)c3ccccc3)[C@]3(O)C[C@H](OC(=O)[C@H](O)[C@@H](NC(=O)OC(C)C)c4cccs4)C(C)=C1C3(C)C)[C@]1(OC(C)=O)CO[C@@H]1C[C@@H]2O` (some centres unmarked) [Compound 3909], < 1 nM.
For `CCCC(=O)O[C@H]1C(=O)[C@@]2(C)C([C@H](OC(=O)c3ccccc3)[C@]3(O)C[C@H](OC(=O)[C@H](O)[C@@H](NC(=O)OCC(C)C)c4ccco4)C(C)=C1C3(C)C)[C@]1(OC(C)=O)CO[C@@H]1C[C@@H]2O` (some centres unmarked) [Compound 3110], the IC50 was < 1 nM.

Still in this assay, the particulars now being: HCT116 colony formation; 72 h drug incubation, colonies counted after 7 days; Example 20, C-10 substituted acetate/C-7 hydroxy taxanes; read-out: IN VITRO ID 50 (nm) HCT116.
In the case of `CCC(C)(C)OC(=O)N[C@@H](c1ccco1)[C@@H](O)C(=O)O[C@H]1C[C@@]2(O)[C@@H](OC(=O)c3ccccc3)C3[C@](C)(C(=O)[C@H](OC(=O)COC(C)=O)C(=C1C)C2(C)C)[C@@H](O)C[C@H]1OC[C@@]31OC(C)=O` (some centres unmarked) [Compound 6577], the IC50 was < 1 nM.

These data come from patent US6638973B2, “Taxane formulations” (FSU Research Foundation, Inc., priority 2000, dated 2003).
